# Several values for one entry are separate records, joined by “and”; a condition that tells them apart may be missing. Equal values may be shown once. Marks after values point to notes of the source that are not given here.
# Key:
# [1] = Plasma concentration after intravaginal administration of vaginal ring; type: in vivo, Cynomolgus monkeys; conditions: for Plasma concentration of Pritelivir free base: individual animals; for Plasma concentration of Pritelivir free base, Mean: group mean
# Protocol: (§1) The study was performed in four single dose phases with 28-day sampling period after Phases 1 and 2 (7-day washout period between doses). Vaginal rings were investigated for Pritelivir free base and Pritelivir mesylate salt at two dose levels per formulation. The test items were applied as vaginal ring in Phases 1 and 2 to female monkeys. The study design is below in the Table 3.
# Venous blood samples were taken from all animals at the following times in relation to dosing.
# • Blood sample site Femoral site • Blood volume 1.0 mL • Anticoagulant For phase 1 samples, Day 1-3 only, blood was sampled into standard HLS vials containing lithium heparin and 20 μL aqueous phosphoric acid (3.5 molar). Thereafter, blood was collected into tubes containing lithium heparin only. Plasma was obtained from all samples by centrifugation. Samples were appropriately labeled and stored deep frozen (−20° C. or below) until analysis • Total no. of blood samples 350 Vaginal Fluid Sampling
# After suitable dilution, plasma and vaginal samples were analyzed on UPLC system Waters Acquity UPLC-HSS PFP column with 1.8 μm particles (100×2.1 mm) by gradient elution using 0.1% formic acid and methanol containing 0.1% formic acid. For detection, a time-of-flight mass spectrometer (Xevo GS-2 QTOF, Waters) was used operating in positive ionization mode (MSe analysis). The samples were analyzed for their content of Pritelivir free base.
# (§2) The study was designed to obtain information on the time-course of unchanged test compound concentrations in plasma and vaginal fluid/tissue, following single intravaginal administration of rings to female Cynomolgus monkeys. Objectives of this study were to determine the safety and tolerance of Pritelivir loaded rings, as well as systemic and local exposure (plasma, vaginal fluid and vaginal and vulval tissue, respectively). Local exposures were compared with in vitro efficacy data of Pritelivir to get an idea on initial pharmacokinetic/pharmacodynamic (PK/PD) parameters for vaginal rings, i.e. to assess the potential ability of a Pritelivir loaded ring to suppress viral replication in the target tissue. Table 9 gives an overview on the EC50 values of Pritelivir on HSV-1 and HSV-2 Data source: Field, H. J., et al., Baseline sensitivity of HSV-1 and HSV-2 clinical isolates and defined acyclovir-resistant strains to the helicase-primase inhibitor pritelivir. Antiviral Res, 2013. 100(2): p. 297-9. EC50=50% effective concentration.
# [2] = Safety and tolerance of Pritelivir loaded rings (clinical signs, body weights); type: in vivo, Cynomolgus monkeys; conditions: single vaginal doses as rings: 40 or 240 mg free base, 49.6 or 297 mg mesylate
# Protocol: as §1
# as §2, with “EC50=50% effective concentration.” left out
# [3] = ring 40 mg free base, Phase 1 Group 1, 2 d
# [4] = ring 40 mg free base, Phase 1 Group 1, 3 d
# [5] = ring 240 mg free base, Phase 2 Group 1, 2 d
# [6] = ring 240 mg free base, Phase 2 Group 1, 3 d
# [7] = ring 240 mg free base, Phase 2 Group 1, 4 d
# [8] = ring 240 mg free base, Phase 2 Group 1, 7 d
# [9] = ring 240 mg free base, Phase 2 Group 1, 10 d
# [10] = ring 240 mg free base, Phase 2 Group 1, 14 d
# [11] = ring 240 mg free base, Phase 2 Group 1, 17 d
# [12] = ring 240 mg free base, Phase 2 Group 1, 21 d
# [13] = ring 240 mg free base, Phase 2 Group 1, 24 d
# [14] = ring 240 mg free base, Phase 2 Group 1, 28 d
structure (smiles),measurement,setting,value
Cc1nc(N(C)C(=O)Cc2ccc(-c3ccccn3)cc2)sc1S(N)(=O)=O [Pritelivir free base],Plasma concentration of Pritelivir free base,"[1]; ring 40 mg free base, Phase 1 Group 1, 0.0833 d",6.03 ^ μg/L and 4.53 ^ μg/L
same,Plasma concentration of Pritelivir free base,"[1]; ring 40 mg free base, Phase 1 Group 1, 0.167 d",6.90 ^ μg/L and 7.56 ^ μg/L
same,Plasma concentration of Pritelivir free base,"[1]; ring 40 mg free base, Phase 1 Group 1, 0.333 d",8.54 ^ μg/L and 10.9 ^ μg/L and 3.97 ^ μg/L
same,"Plasma concentration of Pritelivir free base, Mean",[1]; [3],10.2 ^ μg/L
same,Plasma concentration of Pritelivir free base,[1]; [3],4.07 ^ μg/L and 11.6 ^ μg/L and 18.3 ^ μg/L and 6.75 ^ μg/L
same,"Plasma concentration of Pritelivir free base, Mean",[1]; [4],9.20 ^ μg/L
same,Plasma concentration of Pritelivir free base,[1]; [4],4.80 ^ μg/L and 7.29 ^ μg/L and 18.4 ^ μg/L and 6.30 ^ μg/L
same,Plasma concentration of Pritelivir free base,"[1]; ring 40 mg free base, Phase 1 Group 1, 4 d",3.41 ^a μg/L and 5.30 ^ μg/L and 3.51 ^a μg/L
same,Plasma concentration of Pritelivir free base,"[1]; ring 40 mg free base, Phase 1 Group 1, 7 d",3.22 ^a μg/L and 3.86 ^a μg/L and 4.00 ^ μg/L
same,Plasma concentration of Pritelivir free base,"[1]; ring 40 mg free base, Phase 1 Group 1, 10 d",3.02 ^a μg/L and 3.74 ^a μg/L and 2.75 ^a μg/L
same,Plasma concentration of Pritelivir free base,"[1]; ring 40 mg free base, Phase 1 Group 1, 14 d",2.83 ^a μg/L and 4.32 ^ μg/L and 3.29 ^a μg/L
same,Plasma concentration of Pritelivir free base,"[1]; ring 40 mg free base, Phase 1 Group 1, 17 d",4.08 ^ μg/L and 3.48 ^a μg/L and 2.59 ^a μg/L
same,Plasma concentration of Pritelivir free base,"[1]; ring 40 mg free base, Phase 1 Group 1, 21 d",3.08 ^a μg/L and 2.67 ^a μg/L
same,Plasma concentration of Pritelivir free base,"[1]; ring 40 mg free base, Phase 1 Group 1, 24 d",2.77 ^a μg/L
same,Plasma concentration of Pritelivir free base,"[1]; ring 40 mg free base, Phase 1 Group 1, 28 d",2.76 ^a μg/L and 3.00 ^a μg/L
same,Plasma concentration of Pritelivir free base,"[1]; ring 240 mg free base, Phase 2 Group 1, 0.0417 d",2.96 ^a μg/L
same,Plasma concentration of Pritelivir free base,"[1]; ring 240 mg free base, Phase 2 Group 1, 0.0833 d",2.95 ^a μg/L
same,Plasma concentration of Pritelivir free base,"[1]; ring 240 mg free base, Phase 2 Group 1, 0.167 d",2.82 ^a μg/L and 8.45 μg/L and 4.56 μg/L and 2.49 ^a μg/L
same,Plasma concentration of Pritelivir free base,"[1]; ring 240 mg free base, Phase 2 Group 1, 0.333 d",3.78 ^a μg/L and 10.1 μg/L and 5.80 μg/L and 3.79 ^a μg/L
same,"Plasma concentration of Pritelivir free base, Mean",[1]; [5],14.3 ^ μg/L
same,Plasma concentration of Pritelivir free base,[1]; [5],10.1 ^ μg/L and 23.0 μg/L and 9.89 μg/L
same,"Plasma concentration of Pritelivir free base, Mean",[1]; [6],17.0 ^ μg/L
same,Plasma concentration of Pritelivir free base,[1]; [6],15.6 ^ μg/L and 15.2 μg/L and 10.2 ^ μg/L
same,"Plasma concentration of Pritelivir free base, Mean",[1]; [7],17.0 ^ μg/L
same,Plasma concentration of Pritelivir free base,[1]; [7],13.9 ^ μg/L and 16.1 μg/L and 12.2 ^ μg/L
same,"Plasma concentration of Pritelivir free base, Mean",[1]; [8],13.1 ^ μg/L
same,Plasma concentration of Pritelivir free base,[1]; [8],11.8 ^ μg/L and 14.2 μg/L and 10.3 ^ μg/L
same,"Plasma concentration of Pritelivir free base, Mean",[1]; [9],8.80 ^ μg/L
same,Plasma concentration of Pritelivir free base,[1]; [9],8.27 ^ μg/L and 9.04 μg/L and 8.43 ^ μg/L
same,"Plasma concentration of Pritelivir free base, Mean",[1]; [10],8.70 ^ μg/L
same,Plasma concentration of Pritelivir free base,[1]; [10],6.33 ^ μg/L and 8.33 μg/L and 10.6 ^ μg/L
same,"Plasma concentration of Pritelivir free base, Mean",[1]; [11],8.67 ^ μg/L
same,Plasma concentration of Pritelivir free base,[1]; [11],5.58 ^ μg/L and 9.84 μg/L and 8.41 ^ μg/L
same,"Plasma concentration of Pritelivir free base, Mean",[1]; [12],6.97 ^ μg/L
same,Plasma concentration of Pritelivir free base,[1]; [12],6.02 ^ μg/L and 8.37 μg/L and 5.71 ^ μg/L
same,"Plasma concentration of Pritelivir free base, Mean",[1]; [13],8.97 ^ μg/L
same,Plasma concentration of Pritelivir free base,[1]; [13],4.96 ^ μg/L and 11.3 μg/L and 9.86 ^ μg/L
same,"Plasma concentration of Pritelivir free base, Mean",[1]; [14],8.79 ^ μg/L
same,Plasma concentration of Pritelivir free base,[1]; [14],5.57 ^ μg/L and 9.32 μg/L and 7.55 ^ μg/L
same,Adverse findings for clinical signs or body weights,[2],did not result in any adverse findings
